Measured values reported in patent US7759313B2, “Induction method for cell differentiation” (Obschetstvo S Ogranichennoi Otvetstvennostiyu …, priority 2002, dated 2010).
Values joined by “and” are separate entries in the source; they are usually repeats but may differ in a detail not shown here. Equal entries are not always repeated. Where two headings read alike, the source gives them in different places.

Tests used:
human M-5 melanoma cells = assay: Initial rate of cell proliferation (IRCP), M-5 cells; type: cell-based
Method: The study was conducted on two continuous cell cultures growing in the form of a monolayer in a tissue culture (on murine B-16 melanoma cells and human M-5 melanoma cells). […] Dicarbamine (D) was transferred into stock solution (1.000 μM), sterilized through filters with 0.22 μm pore diameter and then diluted to concentrations 0.01 and 1.0 μM.
(§1) The effect of preparations on cells was assessed on the basis of initial rate of cell proliferation (IRCP). This index (IRCP), which is usually called colony rate growth, was determined by numbering the number of cells in micro colonies during the first days following affection in “test” (with preparations) and “control” (without preparations) dishes, by analyzing 50 colonies in each of them. Each “point” included […] three Petri dishes with growing cell colonies in adding specific concentrations of preparations under study. Growth rate of colonies (in %) was calculated according to the formula: […]
(§2) Cell numbers in micro colonies were calculated for every “point”. Toxicity of preparations in the selected range of concentrations was judged by cell survival, which was determined by the ratio between numbers of the colonies grown in “test” and “control” dishes.

[1] = test system: murine B-16 melanoma cells; assay: Initial rate of cell proliferation (IRCP), B-16 cells; type: cell-based
Method: The study was conducted on two continuous cell cultures growing in the form of a monolayer in a tissue culture (on murine B-16 melanoma cells and human M-5 melanoma cells). IN was administered at concentrations 70-700 IU/ml. Dicarbamine (D) was transferred into stock solution (1.000 μM), sterilized through filters with 0.22 μm pore diameter and then diluted to concentrations 0.01 and 1.0 μM.
as §1, §2

human melanoma Mel-6 = assay: Inoculated human melanoma Mel-6 growth dynamics in nude mice; type: in vivo
Method: The study was conducted on 10-12 week old thymus free “nude” female Balb/C mice weighting 20-22 grams (breeding of the RCRC named after N. N. Blokhin of the RAMS). The human melanoma strain Mel-6 earlier obtained from primary clinical material was taken from the bank of tumor strains of the RCRC of the RAMS for transplantation to thymus free mice.
Dicarbamine at the single doses 1.5 mg/kg and 4.5 mg/kg was p.o. administered daily to two mice groups for 3 weeks from the moment of the tumor development (from day 15 to day 36 from the tumor transplantation).
Measurement of the tumor was done at days 18, 25, 33, 39, 46 and 53 from the transplantation. The effect of Dicarbamine was assessed on the basis of the tumor growth dynamics for 8 weeks in multiple measurements of tumor volumes “V” according to the formula: […]
wherein L is length in mm, s is width in mm; and h is height in mm.
The ratio between volumes of tumors Vt/Vt−1 expressed as a percentage was then calculated and statistically processed according to the Student's method to calculate statistically significant difference.

Friend erythroblastosis = assay: Friend erythroblastosis, histological examination; type: in vivo, mice
Method: Friend erythroblastosis which was inoculated subcutaneously to DBA2 female mice via spleen cells was investigated.
Group 2—Reaferon at dose 100 thousand IU/kg was administered daily s.c. from day 3 to day 7 after inoculation;
Group 3—Dicarbamine at a single dose 4.5 mg/kg was administered p.o. from day 3 to day 7 after inoculation;
Group 4—Dicarbamine and Reaferon were administered simultaneously according to a similar scheme.
Material for light microscopy was taken from sacrificed animals at days 3, 7 and 14 after termination of therapy or administration of a physiological saline. Material for electronic microscopy was taken at days 7 and 14.
For histological examination, tumor pieces were fixed in 10% neutral formalin and imbedded into paraffin; slices obtained were stained with hematoxylin-eosin and examined for glycogen (polysaccharide) content using the periodic acid Schiff reaction, for RNA content according to Brachet, and for lipids and iron. Slices were examined and photographed using a Polivar light microscope (Austria).
The percentage of mitoses and cells with apoptosis, as well as areas of necrosis, were assessed during histological examination.

[2] = IN 70.0 IU/ml + D 1.0 μM, 72 hours
[3] = Dicarbamine 4.5 mg/kg p.o. days 3-7

O=C(O)CCCC(=O)NCCc1c[nH]cn1 [Dicarbamine]
Terms of death (CPH 50 + Cysplatin 2 mg/kg): no | Total leukocyte number (CPH 50 + Cysplatin 2 mg/kg, day 0): 11.30 ± 2.30 thousand in mm^3 | Total leukocyte number (CPH 50 + Cysplatin 2 mg/kg, day 3): 6.70 ± 1.15 thousand in mm^3 | Total leukocyte number (CPH 50 + Cysplatin 2 mg/kg, day 5): 17.00 ± 5.17 thousand in mm^3 | Total leukocyte number (CPH 50 + Cysplatin 2 mg/kg, day 7): 14.50 ± 2.00 thousand in mm^3 | Total leukocyte number (CPH 50 + Cysplatin 2 mg/kg, day 21): 12.40 ± 0.99 thousand in mm^3 | Terms of death (CPH 100 + Cysplatin 4 mg/kg): no | Total leukocyte number (CPH 100 + Cysplatin 4 mg/kg, day 0): 11.30 ± 2.30 thousand in mm^3 | Total leukocyte number (CPH 100 + Cysplatin 4 mg/kg, day 3): 4.14 ± 0.60 thousand in mm^3 | Total leukocyte number (CPH 100 + Cysplatin 4 mg/kg, day 5): 11.40 ± 1.10 thousand in mm^3 | Total leukocyte number (CPH 100 + Cysplatin 4 mg/kg, day 7): 14.90 ± 1.32 thousand in mm^3 | Total leukocyte number (CPH 100 + Cysplatin 4 mg/kg, day 21): 11.80 ± 1.32 thousand in mm^3 | Total leukocyte number (CPH 200 + Cysplatin 8 mg/kg i.p. once (Dicarbamine group: 0.5 mg/kg daily 20 days), day 0): 11.30 ± 2.30 thousand in mm^3 | Total leukocyte number (CPH 200 + Cysplatin 8 mg/kg, day 3): 2.32 ± 0.49 thousand in mm^3 | Total leukocyte number (CPH 200 + Cysplatin 8 mg/kg, day 5): 6.60 ± 0.90 thousand in mm^3 | Total leukocyte number (CPH 200 + Cysplatin 8 mg/kg, day 7): 10.40 ± 1.54 thousand in mm^3 | Total leukocyte number (mouse, in vivo): 12.30 ± 1.56 thousand in mm^3 | Initial rate of cell proliferation (% cells/colony relative to the control) (human M-5 melanoma cells; D 0.01 μM, 48 hours): 82.4% and 84.2% | Initial rate of cell proliferation (human M-5 melanoma cells; D 0.01 μM, 72 hours): 73.6% | Initial rate of cell proliferation (human M-5 melanoma cells; D 0.01 μM, 96 hours): 70.2% | Initial rate of cell proliferation (human M-5 melanoma cells; D 1.0 μM, 48 hours): 69.0% | Initial rate of cell proliferation (human M-5 melanoma cells; D 1.0 μM, 72 hours): 50.0% | Initial rate of cell proliferation (human M-5 melanoma cells; D 1.0 μM, 96 hours): 49.1% | Initial rate of cell proliferation (human M-5 melanoma cells; IN 7.0 IU/ml + D 0.01 μM, 48 hours): 79.1% | Initial rate of cell proliferation (human M-5 melanoma cells; IN 7.0 IU/ml + D 0.01 μM, 72 hours): 49.1% | Initial rate of cell proliferation (human M-5 melanoma cells; IN 7.0 IU/ml + D 0.01 μM, 96 hours): 46.9% | Initial rate of cell proliferation (human M-5 melanoma cells; IN 7.0 IU/ml + D 1.0 μM, 48 hours): 54.7% | Initial rate of cell proliferation (human M-5 melanoma cells; IN 7.0 IU/ml + D 1.0 μM, 72 hours): 36.9% | Initial rate of cell proliferation (human M-5 melanoma cells; IN 7.0 IU/ml + D 1.0 μM, 96 hours): 33.3% | Initial rate of cell proliferation (human M-5 melanoma cells; IN 70.0 IU/ml + D 0.01 μM, 48 hours): 40.5% | Initial rate of cell proliferation (human M-5 melanoma cells; IN 70.0 IU/ml + D 0.01 μM, 72 hours): 34.9% | Initial rate of cell proliferation (human M-5 melanoma cells; IN 70.0 IU/ml + D 0.01 μM, 96 hours): 31.0% and 31.7% | Initial rate of cell proliferation (human M-5 melanoma cells; IN 70.0 IU/ml + D 1.0 μM, 48 hours): 30.7% | Initial rate of cell proliferation (human M-5 melanoma cells; [2]): 24.0% and 24.5% | Initial rate of cell proliferation (human M-5 melanoma cells; IN 70.0 IU/ml + D 1.0 μM, 96 hours): 23.9% | toxicity according to the survival index (human M-5 melanoma cells; M-5 cells): does not show toxicity | toxicity according to the survival index ([1]; B-16 cells): does not show toxicity | Initial rate of cell proliferation ([1]; D 0.01 μM, 48 hours): 52.9% | Initial rate of cell proliferation ([1]; D 0.01 μM, 72 hours): 61.0% | Initial rate of cell proliferation ([1]; D 1.0 μM, 48 hours): 44.6% | Initial rate of cell proliferation ([1]; D 1.0 μM, 72 hours): 44.6% and 43.6% | Initial rate of cell proliferation [1, 2]: 26.1% | Initial rate of cell proliferation ([1]; IN 700.0 IU/ml + D 0.01 μM, 48 hours): 24.9% | Initial rate of cell proliferation ([1]; IN 700.0 IU/ml + D 0.01 μM, 72 hours): 22.0% | Initial rate of cell proliferation ([1]; IN 700.0 IU/ml + D 1.0 μM, 48 hours): 21.5% | Initial rate of cell proliferation ([1]; IN 700.0 IU/ml + D 1.0 μM, 72 hours): 16.0% | V (tumor volume) M + m (human melanoma Mel-6; 1.5 mg/kg p.o. daily days 15-36, 18 day after inoculation): 21.8 + 12.8 | percent change in tumor volume Vt/Vt−1 (human melanoma Mel-6; 1.5 mg/kg, 18 day): 100% | V (tumor volume) M + m (human melanoma Mel-6; 1.5 mg/kg, 25 day): 77.5 + 46.4 | percent change in tumor volume Vt/Vt−1 (human melanoma Mel-6; 1.5 mg/kg, 25 day): 302.0 ± 186.0% | V (tumor volume) M + m (human melanoma Mel-6; 1.5 mg/kg, 33 day): 342.0 + 142.0 | percent change in tumor volume Vt/Vt−1 (human melanoma Mel-6; 1.5 mg/kg, 33 day): 428.0 ± 313.1% | V (tumor volume) M + m (human melanoma Mel-6; 1.5 mg/kg, 39 day): 435.0 + 187.0 | percent change in tumor volume Vt/Vt−1 (human melanoma Mel-6; 1.5 mg/kg, 39 day): 23.2 ± 22.1% | V (tumor volume) M + m (human melanoma Mel-6; 1.5 mg/kg, 46 day): 662.0 + 417.0 | percent change in tumor volume Vt/Vt−1 (human melanoma Mel-6; 1.5 mg/kg, 46 day): 23.9 + 31.0% | V (tumor volume) M + m (human melanoma Mel-6; 1.5 mg/kg, 53 day): 783.0 + 423.0 | percent change in tumor volume Vt/Vt−1 (human melanoma Mel-6; 1.5 mg/kg, 53 day): 18.6 + 54.0% | V (tumor volume) M + m (human melanoma Mel-6; 4.5 mg/kg p.o. daily days 15-36, 18 day): 91.9 + 54.4 | percent change in tumor volume Vt/Vt−1 (human melanoma Mel-6; 4.5 mg/kg, 18 day): 100% | V (tumor volume) M + m (human melanoma Mel-6; 4.5 mg/kg, 25 day): 266.0 + 198.0 | percent change in tumor volume Vt/Vt−1 (human melanoma Mel-6; 4.5 mg/kg, 25 day): 166.0±93.0% | V (tumor volume) M + m (human melanoma Mel-6; 4.5 mg/kg, 33 day): 852.0 + 495.0 | percent change in tumor volume Vt/Vt−1 (human melanoma Mel-6; 4.5 mg/kg, 33 day): 276.0 ± 104.0% | V (tumor volume) M + m (human melanoma Mel-6; 4.5 mg/kg, 39 day): 1129.0 + 600.0 | percent change in tumor volume Vt/Vt−1 (human melanoma Mel-6; 4.5 mg/kg, 39 day): 39.8 ± 27.3% | V (tumor volume) M + m (human melanoma Mel-6; 4.5 mg/kg, 46 day): 1354.0 + 735.0 | percent change in tumor volume Vt/Vt−1 (human melanoma Mel-6; 4.5 mg/kg, 46 day): 19.6 ± 17.5% | V (tumor volume) M + m (human melanoma Mel-6; 4.5 mg/kg, 53 day): 1550.0 + 780.0 | percent change in tumor volume Vt/Vt−1 (human melanoma Mel-6; 4.5 mg/kg, 53 day): 4.2 + 22.5% | delay in maximum tumor mass gain in comparison with the control (human melanoma Mel-6; in vivo): 7 days | Apoptosis (Friend erythroblastosis; Dicarbamine 4.5 mg/kg p.o. + Reaferon 100 thousand IU/kg s.c., day 3): 0.2-0.5% | area of necrosis as compared to group I (control) (Friend erythroblastosis; [3]): did not significantly change | mitotic activity as compared to the control (Friend erythroblastosis; [3]): remained within the limits of the control figures | area of necrosis and mitotic activity as compared to group II (Reaferon) (Friend erythroblastosis; Dicarbamine + Reaferon): did not show significant shifts | Apoptosis (Friend erythroblastosis; Dicarbamine + Reaferon, days 7 and 14): 0.5%
